Measurements reported in PubChem BioAssay (NCI).
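Briefly, cells in 96-well plates were exposed to five compound concentrations for 48 h, and endpoints were estimated by linear interpolation. Here, GI50 denotes the concentration required for 50% inhibition of growth. TGI marks complete inhibition of growth.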

Key:
Experiment in all cases: growth of human tumour cells (NCI), 48 h
MOLT-4 leukemia = system: MOLT-4 leukemia
OVCAR-5 ovarian = system: OVCAR-5 ovarian
EKVX NSCLC = system: EKVX NSCLC
HL-60(TB) leukemia = system: HL-60(TB) leukemia
U251 CNS = system: U251 CNS
PC-3 prostate = system: PC-3 prostate
CCRF-CEM leukemia = system: CCRF-CEM leukemia
SNB-75 CNS = system: SNB-75 CNS
HOP-62 NSCLC = system: HOP-62 NSCLC
KM12 colon = system: KM12 colon

SMILES | GI50 (MOLT-4 leukemia) [µM] | TGI (MOLT-4 leukemia) [µM] | GI50 (OVCAR-5 ovarian) [µM] | TGI (OVCAR-5 ovarian) [µM] | GI50 (EKVX NSCLC) [µM] | TGI (EKVX NSCLC) [µM] | GI50 (HL-60(TB) leukemia) [µM] | TGI (HL-60(TB) leukemia) [µM] | GI50 (U251 CNS) [µM] | TGI (U251 CNS) [µM] | GI50 (PC-3 prostate) [µM] | TGI (PC-3 prostate) [µM] | GI50 (CCRF-CEM leukemia) [µM] | TGI (CCRF-CEM leukemia) [µM] | GI50 (SNB-75 CNS) [µM] | TGI (SNB-75 CNS) [µM] | GI50 (HOP-62 NSCLC) [µM] | TGI (HOP-62 NSCLC) [µM] | GI50 (KM12 colon) [µM] | TGI (KM12 colon) [µM]
CC(=O)O[C@H]1CC[C@@]2(C)C(=C/C(=N/OCCN3CCCC3)[C@H]3[C@@H]4CC[C@H](OC(C)=O)[C@@]4(C)CC[C@@H]32)C1 | 29.6 | 84.3 | 73.8 | > 100 | > 100 | > 100 | 23.3 | 57.7 | 67.1 | > 100 | 40.5 | > 100 | 42.9 | > 100 | 68 | > 100 | 29.2 | > 100 | 40.7 | > 100
Cc1nc2ccccc2nc1N=Nc1ccccc1 | 14.9 | 43.2 | 75.7 | > 100 | 10.9 | > 100 | 20.6 | 56.6 | 35.9 | > 100 | 6.57 | 60.2 | 25 | > 100 | 18.3 | > 100 | 28.5 | > 100 | 11.9 | 93.5
CC(=O)OC1=CC2(OC(C)=O)CC(C)(C)C1C1C(=O)C=CC(=O)C12 (centres undefined) | – | > 100 | – | > 100 | – | > 100 | – | > 100 | – | > 100 | – | > 100 | – | > 100 | – | > 100 | – | > 100 | – | > 100
C[C@@H](CO)NC(=O)c1cc(-c2ccc(Cl)cc2)nn(-c2cnn(C)c2)c1=O | 15.9 | 91.5 | 28.7 | > 100 | 26 | > 100 | 13.9 | 42.3 | 42.9 | > 100 | 27.8 | > 100 | 22.1 | > 100 | 16.7 | 78.1 | 41.8 | > 100 | 59.9 | > 100
COc1cnc2c(c1)C(=O)c1c-2n(CCCN2CCC(O)CC2)c(=O)c2cc(Cl)ccc12 | 0.0745 | 5.34 | 1.63 | 3.43 | 1.84 | 5.85 | 0.929 | 4.32 | 0.0904 | 1.7 | 1.46 | 3.56 | 0.066 | > 100 | 10.4 | 24.6 | 0.0942 | 17.1 | 1.43 | 3.64
CCSC[C@@H]1C[C@](O)(c2ccc(F)cc2)[C@@H](c2ccc(F)cc2)O1 | 3.21 | 11.1 | 20.2 | 37.9 | 15.3 | 31.7 | 7 | 21.2 | 17.8 | 31.7 | 15.8 | 30 | 12.5 | 30.2 | 16.3 | 31.1 | 18.2 | 33.4 | 19.4 | 41.3
CC1(C)O[C@@H]2C[C@H]3[C@@H]4C[C@H](F)C5=CC(=O)C=C[C@]5(C)[C@@]4(F)[C@@H](O)C[C@]3(C)[C@]2(C(=O)CO)O1 | – | > 100 | – | > 100 | – | > 100 | – | > 100 | – | > 100 | – | > 100 | – | > 100 | – | > 100 | – | > 100 | – | > 100
CN(CCCCCl)P(=O)(OCc1ccc([N+](=O)[O-])o1)OCC1OC(n2cnc([N+](=O)[O-])c2N)C(O)C1O (centres undefined) | > 100 | > 100 | > 100 | > 100 | > 100 | > 100 | > 100 | > 100 | > 100 | > 100 | > 100 | > 100 | > 100 | > 100 | > 100 | > 100 | > 100 | > 100 | 90.7 | > 100
NC1(Cc2ccc(Cl)cc2)CCN(c2ncnc3[nH]ccc23)CC1 | 1.91 | 17.3 | 8.33 | 43.6 | 2.69 | 18.5 | 3.39 | 17.6 | 3.73 | 17.5 | 2.99 | 23.5 | 3.05 | 24 | 0.437 | 4.37 | 3.63 | 17.2 | 3.02 | 13.9
O=Cc1ccc(-c2ccc(-c3nc4ccccc4s3)cc2)s1 | 51.5 | > 100 | > 100 | > 100 | 42.1 | > 100 | 34.8 | > 100 | 51.9 | > 100 | 28.7 | > 100 | 26.5 | 90.7 | > 100 | > 100 | > 100 | > 100 | 38.4 | > 100
Cc1cc(O)c(C2=NN(c3ccc(S(N)(=O)=O)cc3)C(/C=C/c3ccccc3)C2)cc1Cl (centres undefined) | 17.7 | 73.7 | 3.18 | 14.7 | 14.2 | 35.3 | 68.3 | > 100 | 3.79 | 15.6 | 3.15 | 11.5 | 17.7 | 50 | 3.39 | 16.1 | 3.94 | 14.1 | 11.7 | 34.8
O=C1c2cccnc2C(=O)c2c1c(C(=O)OCCCN1CCCCC1)c1ccccn21 | 0.1 | > 36.4 | 0.0344 | 1.83 | 0.0351 | 0.253 | 0.122 | 7.5 | < 0.01 | 0.0372 | < 0.0183 | 0.389 | 0.0706 | – | < 0.01 | < 0.0187 | < 0.01 | 0.0203 | < 0.0185 | 0.165
CC(=O)/C=C/c1ccc(OCc2ccc(Cl)cc2)cc1 | 240 | > 1000 | > 1000 | > 1000 | 298 | > 1000 | 405 | > 1000 | > 1000 | > 1000 | 725 | > 1000 | 577 | > 1000 | 457 | > 1000 | > 1000 | > 1000 | 513 | > 1000
CC1OC(CC(=O)O)CC2=C1C(=O)c1c(O)cccc1C2=O (centres undefined) | – | 0.115 | – | 2.86 | – | 2.02 | – | 0.0582 | – | 2.38 | – | 0.817 | – | 0.0957 | – | 2.86 | – | 2.94 | – | 3.49
CC1=Nc2c([nH]c(=S)[nH]c2=O)NC(c2c(Cl)cccc2Cl)C1 (centres undefined) | – | 5.43 | – | 11.9 | – | 18.7 | – | 2.54 | – | 2.32 | – | 2.6 | – | 2.18 | – | 10.6 | – | 13.6 | – | 4.51
Cc1[nH]c2cc(F)ccc2c1-c1nc2c3cccnc3c3ncccc3c2[nH]1 | 0.17 | 0.642 | 0.573 | 2.65 | 0.32 | 2.69 | 0.205 | 0.564 | 0.121 | 1.22 | 0.183 | 2.93 | 0.0672 | 0.644 | 0.473 | 1.84 | 0.27 | 1.27 | 0.379 | 1.78
C/C(=N\NC(=S)N1CCCCCC1)c1cccc2cccnc12 | – | > 100 | – | > 100 | – | > 75.3 | – | > 45.7 | – | > 29.2 | – | > 100 | – | > 100 | – | > 91.6 | – | > 70.7 | – | > 87.4
CCOC(=O)Nc1cc2ccccc2c(N=Nc2ccccc2)c1O | – | > 100 | – | > 100 | – | > 100 | – | > 100 | – | > 100 | – | > 100 | – | > 100 | – | > 100 | – | > 100 | – | > 100
COCCOCCOCc1n(Cc2ccc3ccccc3n2)c2ccccc2[n+]1Cc1ccc2ccccc2n1 | 1.88 | 13 | 2.5 | 18 | 2.55 | 24.4 | 0.26 | 1.31 | 0.354 | 12.9 | 0.591 | 11.7 | 1.78 | 16 | 0.317 | 4.3 | 2.44 | 14.3 | 0.502 | 6.13
